Measurements as given in PubChem BioAssay AID330 (DTP/NCI, 2004).
Several values for one entry are separate records, joined by “and”; a condition that tells them apart may be missing. Equal entries are not always repeated. Inconclusive results and toxic doses are left out. The calls were made as follows: active = survival T/C of 150% or more; inactive = T/C below 125% in these data. Square brackets hold non-standard residues; d marks the D form. Peptide text beside a SMILES is read from it. * marks the point of attachment. ξ: configuration not given here. Cbz = O=C(OCc1ccccc1)*; ξI = CCC(C)C(N)C(=O)O

System: P388 leukemia ip, CD2F1 mice, survival T/C
Assay: NCI In Vivo Anticancer Drug Screen. Data for tumor model P388 Leukemia (intraperitoneal) in CD2F1 (CDF1) mice
Details: endpoint: median survival time, higher = longer survival
In short: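 Mice carrying the transplanted tumor received test compound or vehicle. Survival was recorded in each group, and the value is the treated-group measurement divided by that of the vehicle-treated control group.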

[1] = dose: 6.25 mg/kg/injection, schedule: Q01DX005 (ip), vehicle: Klucel (hydroxypropylcellulose) (HPC)
[2] = dose: 12.5 mg/kg/injection, schedule: Q01DX005 (ip), vehicle: Klucel (hydroxypropylcellulose) (HPC)
[3] = dose: 25.0 mg/kg/injection, schedule: Q01DX005 (ip), vehicle: Klucel (hydroxypropylcellulose) (HPC)
[4] = dose: 50.0 mg/kg/injection, schedule: Q01DX005 (ip), vehicle: saline with Tween-80
[5] = dose: 100.0 mg/kg/injection, schedule: Q01DX005 (ip), vehicle: saline with Tween-80
[6] = dose: 200.0 mg/kg/injection, schedule: Q01DX005 (ip), vehicle: saline with Tween-80
[7] = dose: 50.0 mg/kg/injection, schedule: Q01DX005 (ip), vehicle: Klucel (hydroxypropylcellulose) (HPC)
[8] = dose: 100.0 mg/kg/injection, schedule: Q04DX002 (ip), vehicle: saline with Tween-80
[9] = dose: 200.0 mg/kg/injection, schedule: Q04DX002 (ip), vehicle: saline with Tween-80
[10] = dose: 400.0 mg/kg/injection, schedule: Q04DX002 (ip), vehicle: saline with Tween-80
[11] = dose: 60.0 mg/kg/injection, schedule: Q01DX005 (ip), vehicle: saline with Tween-80
[12] = dose: 120.0 mg/kg/injection, schedule: Q01DX005 (ip), vehicle: saline with Tween-80
[13] = dose: 240.0 mg/kg/injection, schedule: Q01DX005 (ip), vehicle: saline with Tween-80
[14] = dose: 50.0 mg/kg/injection, schedule: Q01DX009 (ip), vehicle: Klucel (hydroxypropylcellulose) (HPC)
[15] = dose: 100.0 mg/kg/injection, schedule: Q01DX009 (ip), vehicle: Klucel (hydroxypropylcellulose) (HPC)
[16] = dose: 200.0 mg/kg/injection, schedule: Q01DX009 (ip), vehicle: Klucel (hydroxypropylcellulose) (HPC)

Measured: T/C

CC1=C(C(N)=O)C(c2ccccc2)NC(=S)N1 (centres undefined)
inactive: dose: 3.12 mg/kg/injection, schedule: Q01DX005 (ip), vehicle: Klucel (hydroxypropylcellulose) (HPC) 101 % of control | [1] 95 % of control | [2] 100 % of control | [3] 100 % of control and 101 % of control (2×)

C[N+](C)(Cc1cccc(Cl)c1)c1nnn[n-]1
inactive: dose: 100.0 mg/kg/injection, schedule: Q04DX003 (ip), vehicle: Klucel (hydroxypropylcellulose) (HPC) 98 % of control | dose: 200.0 mg/kg/injection, schedule: Q04DX003 (ip), vehicle: Klucel (hydroxypropylcellulose) (HPC) 101 % of control | dose: 400.0 mg/kg/injection, schedule: Q04DX003 (ip), vehicle: Klucel (hydroxypropylcellulose) (HPC) 107 % of control

CCC(C)C(NC(=O)CNC(=O)CNC(=O)OCc1ccccc1)C(=O)O (stereo not drawn) (Cbz-Gly-Gly-[ξI]-OH)
inactive: [4] 103 % of control | [5] 100 % of control | [6] 102 % of control

Clc1cccc(-c2nc3ccccc3c3ccccc23)c1
inactive: dose: 100.0 mg/kg/injection, schedule: Q04DX003 (ip), vehicle: saline with Tween-80 100 % of control | dose: 200.0 mg/kg/injection, schedule: Q04DX003 (ip), vehicle: saline with Tween-80 90 % of control | dose: 400.0 mg/kg/injection, schedule: Q04DX003 (ip), vehicle: saline with Tween-80 90 % of control

Cc1ccc(C(=O)CC(=O)Nc2cc([N+](=O)[O-])ccc2OCCOc2ccc(C(C)(C)CC(C)(C)C)cc2)cc1
inactive: dose: 18.75 mg/kg/injection, schedule: Q04DX003 (ip), vehicle: saline sonified 109 % of control | dose: 37.5 mg/kg/injection, schedule: Q04DX003 (ip), vehicle: saline sonified 90 % of control | dose: 75.0 mg/kg/injection, schedule: Q04DX003 (ip), vehicle: saline sonified 109 % of control

[N-]=[N+]=CC(=O)C1OC1c1ccc(Br)cc1 (centres undefined)
inactive: dose: 25.0 mg/kg/injection, schedule: Q01DX005 (ip), vehicle: saline with Tween-80 98 % of control | [4] 93 % of control | [5] 91 % of control | [6] 95 % of control

COc1ccc(C2CCCC(CCc3ccc(O)cc3)O2)cc1 (centres undefined)
inactive: [7] 100 % of control | dose: 100.0 mg/kg/injection, schedule: Q01DX005 (ip), vehicle: Klucel (hydroxypropylcellulose) (HPC) 103 % of control | dose: 200.0 mg/kg/injection, schedule: Q01DX005 (ip), vehicle: Klucel (hydroxypropylcellulose) (HPC) 100 % of control

CC1(C)N=C(N)N=C(N)N1c1cc(C(F)(F)F)cc(C(F)(F)F)c1
inactive: dose: 7.5 mg/kg/injection, schedule: Q01DX005 (ip), vehicle: Klucel (hydroxypropylcellulose) (HPC) 99 % of control | dose: 15.0 mg/kg/injection, schedule: Q01DX005 (ip), vehicle: Klucel (hydroxypropylcellulose) (HPC) 94 % of control | dose: 30.0 mg/kg/injection, schedule: Q01DX005 (ip), vehicle: Klucel (hydroxypropylcellulose) (HPC) 105 % of control

Cc1cc(-c2ccc(N=Nc3c(C)nn(-c4ccc(S(=O)(=O)O)cc4)c3O)c(C)c2)ccc1N=Nc1ccc(O)c(C(=O)O)c1
inactive: dose: 6.25 mg/kg/injection, schedule: Q01DX009 (ip), vehicle: saline with Tween-80 100 % of control | dose: 12.5 mg/kg/injection, schedule: Q01DX009 (ip), vehicle: saline with Tween-80 101 % of control | dose: 25.0 mg/kg/injection, schedule: Q01DX009 (ip), vehicle: saline with Tween-80 93 % of control

Cn1c2ccccc2c2nnc(-n3nc(-c4ccccc4)cc3N)nc21
inactive: [8] 92 % of control | [9] 92 % of control | [10] 91 % of control

COC(=O)c1[nH]c(=O)c(C#N)c(C(=O)OC)c1-c1ccc(F)cc1
inactive: [11] 100 % of control | [12] 92 % of control | [13] 95 % of control

C=CCC(NC(C)=O)C(=O)O (centres undefined)
inactive: dose: 25.0 mg/kg/injection, schedule: Q01DX009 (ip), vehicle: saline 88 % of control | dose: 50.0 mg/kg/injection, schedule: Q01DX009 (ip), vehicle: saline 101 % of control | dose: 100.0 mg/kg/injection, schedule: Q01DX009 (ip), vehicle: saline 93 % of control

O=C1C2=C3C(=CC4COC3O4)C3C4COC(O4)C(=O)C3C2C2COC1O2 (centres undefined)
inactive: dose: 100.0 mg/kg/injection, schedule: Q04DX002 (ip), vehicle: Klucel (hydroxypropylcellulose) (HPC) 115 % of control | dose: 200.0 mg/kg/injection, schedule: Q04DX002 (ip), vehicle: Klucel (hydroxypropylcellulose) (HPC) 109 % of control | dose: 400.0 mg/kg/injection, schedule: Q04DX002 (ip), vehicle: Klucel (hydroxypropylcellulose) (HPC) 115 % of control

FC(F)(F)c1ccccc1Nc1nnc(-c2ccc(Cl)cc2Cl)o1
inactive: [11] 100 % of control | [12] 96 % of control | [13] 87 % of control

CSc1nccc(=O)n1-c1ccc(C)cc1
inactive: [8] 102 % of control | [9] 102 % of control | [10] 98 % of control

CCCCN=C(N=C(NC(=O)c1ccccc1)c1ccccc1)c1ccccc1
inactive: dose: 50.0 mg/kg/injection, schedule: Q01DX009 (ip), vehicle: saline with Tween-80 90 % of control | dose: 100.0 mg/kg/injection, schedule: Q01DX009 (ip), vehicle: saline with Tween-80 89 % of control | dose: 200.0 mg/kg/injection, schedule: Q01DX009 (ip), vehicle: saline with Tween-80 93 % of control

NCC(=O)NCC(=O)NC(Cc1ccc(O)cc1)C(=O)O (centres undefined)
inactive: [4] 101 % of control | [5] 96 % of control | [6] 104 % of control

CN(C(=O)c1ccc(N)cc1)C1CCN(C2CCCCC2)C1 (centres undefined)
inactive: [14] 103 % of control | [15] 101 % of control

CCCCCCC(O)CCCCCC
inactive: dose: 100.0 mg/kg/injection, schedule: Q04DX003 (ip), vehicle: other 104 % of control | dose: 200.0 mg/kg/injection, schedule: Q04DX003 (ip), vehicle: other 109 % of control | dose: 400.0 mg/kg/injection, schedule: Q04DX003 (ip), vehicle: other 100 % of control

COC(=O)c1ccc(SCC/C(CN2C(=O)c3ccccc3C2=O)=N\O)cc1
inactive: [14] 95 % of control | [15] 99 % of control | [16] 88 % of control

CCN(CC)CCOc1ccc(C2c3cc(OC)ccc3CC2Cc2cccc(Cl)c2)cc1 (centres undefined)
inactive: [1] 98 % of control | [2] 95 % of control | [3] 96 % of control | [7] 93 % of control

O=C(O)c1n[nH]c2ccccc2c1=O
inactive: dose: 1.56 mg/kg/injection, schedule: Q01DX009 (ip), vehicle: other 101 % of control | dose: 3.13 mg/kg/injection, schedule: Q01DX009 (ip), vehicle: other 105 % of control | dose: 6.25 mg/kg/injection, schedule: Q01DX009 (ip), vehicle: other 97 % of control | dose: 12.5 mg/kg/injection, schedule: Q01DX009 (ip), vehicle: other 109 % of control | dose: 25.0 mg/kg/injection, schedule: Q01DX009 (ip), vehicle: other 110 % of control and 90 % of control

CCOC(=O)c1ccc(NC(=O)Nc2cccc(O)c2)cc1
inactive: dose: 60.0 mg/kg/injection, schedule: Q01DX005 (ip), vehicle: Klucel (hydroxypropylcellulose) (HPC) 107 % of control | dose: 120.0 mg/kg/injection, schedule: Q01DX005 (ip), vehicle: Klucel (hydroxypropylcellulose) (HPC) 104 % of control | dose: 240.0 mg/kg/injection, schedule: Q01DX005 (ip), vehicle: Klucel (hydroxypropylcellulose) (HPC) 91 % of control

O=C(NC(Cc1ccccc1)C(=O)N1CCCC1C(=O)O)OCc1ccccc1 (stereo not drawn) (Cbz-Phe-Pro-OH; configuration not given here)
inactive: [4] 95 % of control | [5] 100 % of control | [6] 97 % of control

COc1ccc2nc(C)cc(N/N=C/c3ccc(N(CCCl)CCCl)cc3)c2c1
inactive: dose: 0.78 mg/kg/injection, schedule: Q01DX009 (ip), vehicle: Klucel (hydroxypropylcellulose) (HPC) 105 % of control | dose: 1.56 mg/kg/injection, schedule: Q01DX009 (ip), vehicle: Klucel (hydroxypropylcellulose) (HPC) 103 % of control | dose: 3.12 mg/kg/injection, schedule: Q01DX009 (ip), vehicle: Klucel (hydroxypropylcellulose) (HPC) 90 % of control and 98 % of control | dose: 6.25 mg/kg/injection, schedule: Q01DX009 (ip), vehicle: Klucel (hydroxypropylcellulose) (HPC) 90 % of control | dose: 25.0 mg/kg/injection, schedule: Q01DX009 (ip), vehicle: Klucel (hydroxypropylcellulose) (HPC) 90 % of control

CC(C)(OCc1ccccc1)c1ccccc1P(c1ccccc1)c1ccccc1
inactive: [14] 101 % of control | [15] 101 % of control | [16] 110 % of control
